Measurements taken from ChEMBL document CHEMBL5625232, “Development of selective class I protein arginine methyltransferase inhibitors through fragment-based drug design approach” (Eur J Med Chem, 2023).
Calls of active or inactive are those of the source. No cut-off for these calls is given here.

Columns and labels:
[1] = target: T1, Protein arginine N-methyltransferase 6 (Homo sapiens, UniProt Q96LA8); assay: Inhibition of PRMT6 (unknown origin)
Target sequence in this assay (Q96LA8 whole entry): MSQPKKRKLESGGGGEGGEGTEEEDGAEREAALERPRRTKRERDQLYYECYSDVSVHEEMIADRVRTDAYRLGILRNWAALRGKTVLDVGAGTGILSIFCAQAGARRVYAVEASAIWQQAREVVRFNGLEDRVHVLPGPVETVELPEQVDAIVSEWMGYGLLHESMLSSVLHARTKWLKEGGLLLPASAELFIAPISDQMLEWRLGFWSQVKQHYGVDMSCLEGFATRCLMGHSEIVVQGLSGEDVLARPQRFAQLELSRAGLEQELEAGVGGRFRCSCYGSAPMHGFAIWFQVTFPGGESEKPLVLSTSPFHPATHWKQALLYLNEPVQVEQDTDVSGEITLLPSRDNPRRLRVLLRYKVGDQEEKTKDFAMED

[2] = target: Protein arginine N-methyltransferase 1 (Homo sapiens, UniProt Q99873); assay: Inhibition of PRMT1 (unknown origin)
Chain of Protein arginine N-methyltransferase 1 (Q99873 whole entry): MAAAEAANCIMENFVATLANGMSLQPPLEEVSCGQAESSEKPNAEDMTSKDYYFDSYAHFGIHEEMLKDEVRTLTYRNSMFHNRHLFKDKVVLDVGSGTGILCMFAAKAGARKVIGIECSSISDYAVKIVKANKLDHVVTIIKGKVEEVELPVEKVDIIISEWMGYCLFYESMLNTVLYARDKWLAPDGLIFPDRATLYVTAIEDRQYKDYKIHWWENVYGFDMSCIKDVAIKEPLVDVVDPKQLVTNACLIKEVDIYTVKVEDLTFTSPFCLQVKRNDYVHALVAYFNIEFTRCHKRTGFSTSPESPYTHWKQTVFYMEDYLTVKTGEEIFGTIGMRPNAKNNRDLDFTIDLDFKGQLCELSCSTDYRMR

[3] = target: T2, Protein arginine N-methyltransferase 8 (Homo sapiens, UniProt Q9NR22); assay: Inhibition of PRMT8 (unknown origin)
Target sequence in this assay (Q9NR22 whole entry): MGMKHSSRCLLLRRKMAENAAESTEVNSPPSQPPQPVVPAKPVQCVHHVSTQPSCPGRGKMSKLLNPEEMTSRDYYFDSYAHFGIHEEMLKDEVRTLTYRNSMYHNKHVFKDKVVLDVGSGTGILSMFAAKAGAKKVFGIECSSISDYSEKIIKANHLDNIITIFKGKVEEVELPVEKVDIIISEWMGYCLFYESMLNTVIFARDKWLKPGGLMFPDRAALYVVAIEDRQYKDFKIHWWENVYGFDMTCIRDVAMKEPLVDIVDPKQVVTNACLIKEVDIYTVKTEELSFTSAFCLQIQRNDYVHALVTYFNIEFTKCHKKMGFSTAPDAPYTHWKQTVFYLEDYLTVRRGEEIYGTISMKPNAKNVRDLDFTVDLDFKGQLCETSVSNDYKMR

[4] = target: T3, Histone-arginine methyltransferase CARM1 (Homo sapiens, UniProt Q86X55); assay: Inhibition of PRMT4 (unknown origin)
T3 sequence (Q86X55 whole entry): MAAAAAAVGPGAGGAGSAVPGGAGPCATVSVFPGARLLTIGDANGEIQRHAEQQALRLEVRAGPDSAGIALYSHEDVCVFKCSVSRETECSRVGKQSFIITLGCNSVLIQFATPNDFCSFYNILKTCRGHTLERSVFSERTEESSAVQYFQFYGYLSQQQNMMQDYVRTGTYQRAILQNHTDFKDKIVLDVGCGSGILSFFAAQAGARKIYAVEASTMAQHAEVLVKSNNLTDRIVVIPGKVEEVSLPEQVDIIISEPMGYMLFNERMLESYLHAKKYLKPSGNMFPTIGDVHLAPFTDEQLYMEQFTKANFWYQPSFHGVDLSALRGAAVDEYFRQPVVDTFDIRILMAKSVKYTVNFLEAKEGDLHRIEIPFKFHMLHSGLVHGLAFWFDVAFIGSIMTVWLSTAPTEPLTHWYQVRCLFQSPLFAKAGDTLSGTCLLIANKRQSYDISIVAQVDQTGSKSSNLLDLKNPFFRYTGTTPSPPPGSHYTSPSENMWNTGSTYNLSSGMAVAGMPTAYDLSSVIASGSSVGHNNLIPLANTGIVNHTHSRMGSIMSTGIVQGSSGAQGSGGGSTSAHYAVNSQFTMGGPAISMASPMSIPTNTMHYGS

[5] = target: T4, Protein arginine N-methyltransferase 3 (Homo sapiens, UniProt O60678); assay: Inhibition of PRMT3 (unknown origin)
Target sequence in this assay (O60678 whole entry): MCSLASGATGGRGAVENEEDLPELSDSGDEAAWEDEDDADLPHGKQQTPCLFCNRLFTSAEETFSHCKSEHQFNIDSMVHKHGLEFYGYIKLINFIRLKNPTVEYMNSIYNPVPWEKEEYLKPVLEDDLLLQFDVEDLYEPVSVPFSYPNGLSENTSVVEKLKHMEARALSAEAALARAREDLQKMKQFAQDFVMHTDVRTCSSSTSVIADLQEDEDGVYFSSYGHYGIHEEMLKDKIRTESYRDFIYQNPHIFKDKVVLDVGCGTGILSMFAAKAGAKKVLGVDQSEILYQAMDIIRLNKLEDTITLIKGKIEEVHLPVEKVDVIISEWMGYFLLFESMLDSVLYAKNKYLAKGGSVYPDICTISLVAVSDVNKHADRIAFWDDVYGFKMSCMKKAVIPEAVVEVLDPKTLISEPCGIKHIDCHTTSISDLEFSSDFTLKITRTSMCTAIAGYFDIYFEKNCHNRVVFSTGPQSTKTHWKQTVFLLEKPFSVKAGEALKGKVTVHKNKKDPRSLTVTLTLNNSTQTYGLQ

[6] = target: T5, Protein arginine N-methyltransferase 7 (Homo sapiens) (UniProt Q9NVM4); assay: Displacement of 3H-SAM from human PRMT7 at 50 uM in presence of substrate by SPA assay
T5 sequence (whole entry): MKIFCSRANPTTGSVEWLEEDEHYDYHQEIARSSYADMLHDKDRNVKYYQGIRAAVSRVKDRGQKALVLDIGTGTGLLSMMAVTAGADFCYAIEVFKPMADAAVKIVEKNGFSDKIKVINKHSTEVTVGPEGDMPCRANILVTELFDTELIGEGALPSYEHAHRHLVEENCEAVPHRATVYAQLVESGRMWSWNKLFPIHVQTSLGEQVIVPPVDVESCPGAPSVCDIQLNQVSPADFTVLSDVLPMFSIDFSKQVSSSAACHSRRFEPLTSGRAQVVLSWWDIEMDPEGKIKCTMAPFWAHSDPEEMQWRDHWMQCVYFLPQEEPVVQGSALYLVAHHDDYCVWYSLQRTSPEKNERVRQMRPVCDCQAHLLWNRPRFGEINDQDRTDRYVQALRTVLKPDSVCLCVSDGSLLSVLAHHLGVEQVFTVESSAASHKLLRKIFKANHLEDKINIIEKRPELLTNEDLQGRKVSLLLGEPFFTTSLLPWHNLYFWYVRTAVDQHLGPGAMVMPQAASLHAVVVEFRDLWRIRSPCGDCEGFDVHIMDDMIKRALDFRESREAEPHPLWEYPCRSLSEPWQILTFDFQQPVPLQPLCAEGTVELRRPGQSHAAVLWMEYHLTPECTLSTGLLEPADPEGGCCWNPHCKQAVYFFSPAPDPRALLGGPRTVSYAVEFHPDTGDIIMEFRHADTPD

[7] = target: T4, Protein arginine N-methyltransferase 3; assay: Displacement of 3H-SAM from human PRMT3 at 50 uM in presence of substrate by SPA assay
Target sequence in this assay (O60678 2-531 limits assumed): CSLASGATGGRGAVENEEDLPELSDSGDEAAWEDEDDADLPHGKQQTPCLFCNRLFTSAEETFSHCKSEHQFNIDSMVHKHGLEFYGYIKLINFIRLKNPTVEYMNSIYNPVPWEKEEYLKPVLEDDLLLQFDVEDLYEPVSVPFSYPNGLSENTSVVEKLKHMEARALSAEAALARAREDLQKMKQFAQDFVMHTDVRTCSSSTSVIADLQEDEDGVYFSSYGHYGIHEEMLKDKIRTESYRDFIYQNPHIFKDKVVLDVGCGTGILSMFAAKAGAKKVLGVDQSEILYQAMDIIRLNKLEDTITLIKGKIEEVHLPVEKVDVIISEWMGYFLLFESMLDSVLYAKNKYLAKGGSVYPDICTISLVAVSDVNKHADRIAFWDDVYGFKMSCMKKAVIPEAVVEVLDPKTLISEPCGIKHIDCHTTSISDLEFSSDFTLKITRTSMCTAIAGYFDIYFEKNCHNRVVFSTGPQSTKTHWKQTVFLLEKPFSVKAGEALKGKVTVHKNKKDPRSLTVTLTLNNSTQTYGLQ

[8] = target: T1, Protein arginine N-methyltransferase 6; assay: Displacement of 3H-SAM from human PRMT6 at 50 uM in presence of substrate by SPA assay
Target sequence in this assay (Q96LA8 whole entry, looked up): as the sequence (Q96LA8 whole entry) above

[9] = target: T2, Protein arginine N-methyltransferase 8; assay: Displacement of 3H-SAM from human PRMT8 at 50 uM in presence of substrate by SPA assay
Target sequence in this assay (Q9NR22 2-394 limits assumed): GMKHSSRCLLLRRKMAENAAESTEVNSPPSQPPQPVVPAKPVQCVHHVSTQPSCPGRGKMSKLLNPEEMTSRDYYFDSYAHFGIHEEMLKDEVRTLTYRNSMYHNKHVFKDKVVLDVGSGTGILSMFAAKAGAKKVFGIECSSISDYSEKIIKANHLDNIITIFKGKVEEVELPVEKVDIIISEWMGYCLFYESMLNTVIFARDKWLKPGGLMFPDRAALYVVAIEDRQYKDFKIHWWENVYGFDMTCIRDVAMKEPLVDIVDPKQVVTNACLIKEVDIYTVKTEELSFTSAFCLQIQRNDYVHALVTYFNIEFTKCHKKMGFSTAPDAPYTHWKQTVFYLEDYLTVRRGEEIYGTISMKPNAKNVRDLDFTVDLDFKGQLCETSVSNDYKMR

[10] = target: T6, Protein arginine N-methyltransferase 9 (Homo sapiens) (UniProt Q6P2P2); assay: Displacement of 3H-SAM from human PRMT9 at 50 uM in presence of substrate by SPA assay
T6 sequence (whole entry): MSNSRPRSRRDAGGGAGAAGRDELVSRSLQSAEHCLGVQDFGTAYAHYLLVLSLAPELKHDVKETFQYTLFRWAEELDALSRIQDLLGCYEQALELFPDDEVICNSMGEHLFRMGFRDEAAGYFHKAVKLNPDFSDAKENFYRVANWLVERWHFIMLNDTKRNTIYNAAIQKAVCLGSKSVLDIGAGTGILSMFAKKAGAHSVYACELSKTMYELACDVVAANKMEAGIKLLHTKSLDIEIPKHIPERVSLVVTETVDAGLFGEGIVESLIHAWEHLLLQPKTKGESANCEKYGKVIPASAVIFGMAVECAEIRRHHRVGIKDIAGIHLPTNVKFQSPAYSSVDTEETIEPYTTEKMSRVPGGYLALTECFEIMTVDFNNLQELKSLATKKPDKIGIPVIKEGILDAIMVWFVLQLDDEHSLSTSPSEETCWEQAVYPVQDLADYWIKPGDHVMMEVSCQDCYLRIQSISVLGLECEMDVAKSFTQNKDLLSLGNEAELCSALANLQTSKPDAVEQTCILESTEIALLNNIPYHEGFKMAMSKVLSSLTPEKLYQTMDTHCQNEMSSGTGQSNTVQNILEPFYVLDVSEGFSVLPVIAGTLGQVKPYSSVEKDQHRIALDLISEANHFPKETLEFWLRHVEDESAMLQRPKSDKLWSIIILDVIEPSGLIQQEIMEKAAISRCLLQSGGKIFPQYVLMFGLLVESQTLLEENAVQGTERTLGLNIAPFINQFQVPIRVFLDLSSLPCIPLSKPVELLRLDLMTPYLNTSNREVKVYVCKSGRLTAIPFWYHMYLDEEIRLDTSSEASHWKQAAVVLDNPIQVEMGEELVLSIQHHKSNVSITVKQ

[11] = target: T7, Histone-lysine N-methyltransferase SMYD3 (Homo sapiens) (UniProt Q9H7B4); assay: Displacement of 3H-SAM from SMYD3 (unknown origin) using biotinylated-MAP3K2 as substrate at 30 uM incubated for 45 mins by SPA assay relative to control
T7 sequence (whole entry): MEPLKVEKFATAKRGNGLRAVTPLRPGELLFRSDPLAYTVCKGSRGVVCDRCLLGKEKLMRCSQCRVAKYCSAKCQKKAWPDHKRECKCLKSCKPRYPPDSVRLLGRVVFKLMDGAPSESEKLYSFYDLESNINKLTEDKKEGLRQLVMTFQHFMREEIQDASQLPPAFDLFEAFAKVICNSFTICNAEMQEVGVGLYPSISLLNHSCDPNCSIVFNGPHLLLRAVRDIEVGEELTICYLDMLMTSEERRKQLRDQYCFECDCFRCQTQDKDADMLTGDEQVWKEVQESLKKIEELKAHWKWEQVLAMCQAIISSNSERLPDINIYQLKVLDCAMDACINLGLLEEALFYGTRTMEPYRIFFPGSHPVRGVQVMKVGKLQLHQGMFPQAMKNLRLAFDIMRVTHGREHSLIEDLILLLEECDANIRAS

[12] = target: Protein arginine N-methyltransferase 5 (Homo sapiens) (UniProt O14744); assay: Displacement of 3H-SAM from human PRMT5 at 50 uM in presence of substrate by SPA assay
Chain of Protein arginine N-methyltransferase 5 (Homo sapiens) (O14744 whole entry): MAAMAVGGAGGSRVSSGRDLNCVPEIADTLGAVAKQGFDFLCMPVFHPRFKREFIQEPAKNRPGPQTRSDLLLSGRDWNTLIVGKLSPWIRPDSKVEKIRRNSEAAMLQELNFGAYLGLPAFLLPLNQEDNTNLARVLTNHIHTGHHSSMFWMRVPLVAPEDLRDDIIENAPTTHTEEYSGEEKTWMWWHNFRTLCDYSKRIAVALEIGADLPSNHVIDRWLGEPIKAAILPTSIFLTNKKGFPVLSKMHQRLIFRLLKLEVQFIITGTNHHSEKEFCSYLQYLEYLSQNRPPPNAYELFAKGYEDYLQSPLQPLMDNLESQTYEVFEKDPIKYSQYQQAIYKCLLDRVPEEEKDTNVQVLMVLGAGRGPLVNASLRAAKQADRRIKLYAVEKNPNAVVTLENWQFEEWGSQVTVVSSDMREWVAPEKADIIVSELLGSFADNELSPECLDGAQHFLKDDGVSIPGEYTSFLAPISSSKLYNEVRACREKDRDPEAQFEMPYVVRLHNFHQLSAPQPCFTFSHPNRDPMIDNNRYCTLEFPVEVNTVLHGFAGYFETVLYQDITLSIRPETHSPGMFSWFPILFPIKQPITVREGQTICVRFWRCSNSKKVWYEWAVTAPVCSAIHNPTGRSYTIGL

[13] = target: T8, Histone-arginine methyltransferase CARM1 (Homo sapiens) (UniProt Q86X55); assay: Displacement of 3H-SAM from human PRMT4 at 50 uM in presence of substrate by SPA assay
T8 sequence (whole entry): T3 sequence (Q86X55 whole entry)

[14] = target: T9, Histone-lysine N-methyltransferase SUV39H1 (Homo sapiens) (UniProt O43463); assay: Displacement of 3H-SAM from SUV39H1 (unknown origin) using biotinylated-histone H3 peptide as substrate at 30 uM incubated for 45 mins by SPA assay relative to control
T9 sequence (whole entry): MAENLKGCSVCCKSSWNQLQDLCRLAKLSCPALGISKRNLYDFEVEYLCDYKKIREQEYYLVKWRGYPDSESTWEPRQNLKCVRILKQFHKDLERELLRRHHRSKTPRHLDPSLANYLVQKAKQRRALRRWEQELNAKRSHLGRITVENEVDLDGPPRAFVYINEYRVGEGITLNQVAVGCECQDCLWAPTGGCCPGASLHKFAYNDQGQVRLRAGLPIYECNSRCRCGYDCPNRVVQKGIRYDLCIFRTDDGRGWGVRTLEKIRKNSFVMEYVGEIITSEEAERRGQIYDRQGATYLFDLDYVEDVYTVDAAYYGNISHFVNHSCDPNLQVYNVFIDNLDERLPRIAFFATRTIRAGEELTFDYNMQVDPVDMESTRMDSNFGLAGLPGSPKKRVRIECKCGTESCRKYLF

[15] = target: Histone-lysine N-methyltransferase, H3 lysine-79 specific (Homo sapiens) (UniProt Q8TEK3); assay: Displacement of 3H-SAM from DOT1L (unknown origin) at 30 uM incubated for 1 hr in presence of substrate by SPA assay relative to control
Chain of Histone-lysine N-methyltransferase, H3 lysine-79 specific (Homo sapiens) (Q8TEK3 whole entry, looked up): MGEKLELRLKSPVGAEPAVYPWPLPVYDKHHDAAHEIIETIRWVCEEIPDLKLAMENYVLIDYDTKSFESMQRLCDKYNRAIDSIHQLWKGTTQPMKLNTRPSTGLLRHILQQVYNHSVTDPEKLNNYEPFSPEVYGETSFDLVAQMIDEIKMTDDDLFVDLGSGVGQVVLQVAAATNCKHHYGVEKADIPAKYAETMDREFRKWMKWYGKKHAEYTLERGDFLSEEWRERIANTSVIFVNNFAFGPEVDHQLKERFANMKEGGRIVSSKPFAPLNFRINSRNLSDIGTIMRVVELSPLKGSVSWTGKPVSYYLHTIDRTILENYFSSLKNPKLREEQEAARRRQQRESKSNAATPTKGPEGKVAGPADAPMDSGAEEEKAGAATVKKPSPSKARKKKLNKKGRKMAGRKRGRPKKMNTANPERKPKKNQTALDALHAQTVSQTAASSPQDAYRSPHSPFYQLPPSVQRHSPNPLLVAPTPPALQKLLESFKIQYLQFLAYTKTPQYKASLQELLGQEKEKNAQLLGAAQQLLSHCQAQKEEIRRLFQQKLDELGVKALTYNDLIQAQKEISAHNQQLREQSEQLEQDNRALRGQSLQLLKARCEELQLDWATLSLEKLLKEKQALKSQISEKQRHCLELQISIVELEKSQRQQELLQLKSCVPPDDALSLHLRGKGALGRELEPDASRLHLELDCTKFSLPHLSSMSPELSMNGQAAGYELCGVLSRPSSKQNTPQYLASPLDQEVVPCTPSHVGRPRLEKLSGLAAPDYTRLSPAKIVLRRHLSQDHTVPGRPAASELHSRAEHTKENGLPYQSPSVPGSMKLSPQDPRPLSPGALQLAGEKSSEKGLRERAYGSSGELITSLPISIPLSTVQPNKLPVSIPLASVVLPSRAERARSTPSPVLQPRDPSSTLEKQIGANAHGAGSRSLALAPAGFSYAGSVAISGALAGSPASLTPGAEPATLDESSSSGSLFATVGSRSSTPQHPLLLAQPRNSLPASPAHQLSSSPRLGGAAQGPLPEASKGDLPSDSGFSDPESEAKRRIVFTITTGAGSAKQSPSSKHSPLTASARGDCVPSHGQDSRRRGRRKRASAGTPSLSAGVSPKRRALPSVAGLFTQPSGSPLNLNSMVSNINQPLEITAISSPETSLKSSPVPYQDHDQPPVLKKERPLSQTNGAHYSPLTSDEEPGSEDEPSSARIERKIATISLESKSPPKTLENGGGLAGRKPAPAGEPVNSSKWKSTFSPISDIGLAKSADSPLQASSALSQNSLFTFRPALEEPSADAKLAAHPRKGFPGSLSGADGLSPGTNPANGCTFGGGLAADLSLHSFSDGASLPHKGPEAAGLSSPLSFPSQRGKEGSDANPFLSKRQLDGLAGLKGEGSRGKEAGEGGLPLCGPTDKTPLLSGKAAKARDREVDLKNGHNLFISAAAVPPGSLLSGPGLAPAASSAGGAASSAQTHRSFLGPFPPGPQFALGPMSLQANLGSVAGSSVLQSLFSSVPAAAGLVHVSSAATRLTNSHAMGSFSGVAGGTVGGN

| IC50 [1] | IC50 [2] | IC50 [3] | IC50 [4] | IC50 [5] | inhibition [6] | inhibition [7] | inhibition [8] | inhibition [9] | inhibition [10] | inhibition [11] | inhibition [12] | inhibition [13] | inhibition [14] | inhibition [15] | SMILES |
| --- | --- | --- | --- | --- | --- | --- | --- | --- | --- | --- | --- | --- | --- | --- | --- |
| 4 nM | 30 nM | 5 nM | 83 nM | 119 nM |  |  |  |  |  |  |  |  |  |  | CC(C)Oc1ccc(-c2c[nH]cc2CNCCN)cc1 |
|  |  |  |  |  | Active | Active | Active | Active | Active | < 25% | Active | Active | < 25% | 0% | CN(C)CCCNC(=O)c1ccc2c(Nc3ccc(CN)cc3)ncnc2c1 |
